One test addresses TBK1 (Homo sapiens (Human), UniProt Q9UHD2). Kind of test: TBK Biochemical Assay. The method, boiled down:
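Enzyme and substrate with compound (10-point 1:4 series, top 30 uM final, 1% DMSO) incubated 90 min at 25 °C, then stopped; substrate/product separated and read by LabChip mobility-shift, staurosporine 10 uM final as full-inhibition control.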

Another test addresses IKKe (Homo sapiens (Human), UniProt Q14164). Briefly: IKKe Biochemical Assay. The method, boiled down:
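Human IKKε activity was measured with compounds in a 10-point 1:4 dilution series, top concentration 30 uM final, in 1% DMSO final; 10 uM staurosporine served as the control. Enzyme and substrate were incubated 90 min at 25° C, then stopped, and substrate/product peaks were separated by microfluidic mobility-shift on a LabChip EZ Reader II.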

Each structure is given as a SMILES string. pIC50: −log10 of the molar value.

Sequence of TBK1 (Q9UHD2 whole entry, species assumed): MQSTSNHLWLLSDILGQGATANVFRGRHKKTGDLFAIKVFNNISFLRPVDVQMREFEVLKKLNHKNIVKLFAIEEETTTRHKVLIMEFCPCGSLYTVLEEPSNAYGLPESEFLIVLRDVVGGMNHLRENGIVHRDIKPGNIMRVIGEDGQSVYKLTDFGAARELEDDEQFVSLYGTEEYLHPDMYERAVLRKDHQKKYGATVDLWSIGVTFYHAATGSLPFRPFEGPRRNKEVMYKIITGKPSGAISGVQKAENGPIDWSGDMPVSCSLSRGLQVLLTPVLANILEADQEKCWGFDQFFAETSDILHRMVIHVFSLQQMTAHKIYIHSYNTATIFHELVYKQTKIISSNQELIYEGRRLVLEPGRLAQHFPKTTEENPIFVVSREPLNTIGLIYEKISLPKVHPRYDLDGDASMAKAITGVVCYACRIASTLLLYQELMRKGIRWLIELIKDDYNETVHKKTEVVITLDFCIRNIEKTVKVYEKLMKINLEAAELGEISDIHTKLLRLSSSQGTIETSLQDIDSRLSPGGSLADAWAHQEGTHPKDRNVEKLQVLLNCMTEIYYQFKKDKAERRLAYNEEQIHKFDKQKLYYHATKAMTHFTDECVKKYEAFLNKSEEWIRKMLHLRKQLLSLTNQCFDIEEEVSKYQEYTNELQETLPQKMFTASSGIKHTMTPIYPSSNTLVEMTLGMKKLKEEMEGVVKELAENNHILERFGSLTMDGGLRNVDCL
Sequence of IKKe (Q14164 whole entry, species assumed): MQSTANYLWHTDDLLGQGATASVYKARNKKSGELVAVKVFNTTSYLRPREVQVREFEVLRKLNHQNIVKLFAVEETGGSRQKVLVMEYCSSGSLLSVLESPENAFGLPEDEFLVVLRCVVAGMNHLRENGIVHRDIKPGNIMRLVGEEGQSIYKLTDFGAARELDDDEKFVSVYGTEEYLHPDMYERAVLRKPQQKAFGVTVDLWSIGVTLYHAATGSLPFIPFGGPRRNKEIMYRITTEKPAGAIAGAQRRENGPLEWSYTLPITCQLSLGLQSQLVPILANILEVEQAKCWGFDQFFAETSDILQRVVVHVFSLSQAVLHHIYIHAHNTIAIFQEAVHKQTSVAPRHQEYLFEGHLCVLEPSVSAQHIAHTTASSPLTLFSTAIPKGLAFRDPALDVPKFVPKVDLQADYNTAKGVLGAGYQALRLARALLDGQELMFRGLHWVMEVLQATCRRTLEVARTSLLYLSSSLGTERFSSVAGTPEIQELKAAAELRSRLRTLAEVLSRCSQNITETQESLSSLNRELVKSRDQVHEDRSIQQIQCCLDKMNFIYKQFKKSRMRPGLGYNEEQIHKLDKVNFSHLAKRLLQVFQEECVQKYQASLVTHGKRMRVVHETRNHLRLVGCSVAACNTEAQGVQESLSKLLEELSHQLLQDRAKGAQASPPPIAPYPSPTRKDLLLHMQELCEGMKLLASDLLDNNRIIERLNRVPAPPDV

For orientation: pIC50 means the negative decadic logarithm of the IC50, by convention in mol/L. Regarding `COc1nc(Nc2cc(-c3ccc(O[C@H]4CCN(C(=O)[C@@H](C)O)CC4(F)F)c(C#N)c3)ncn2)ccc1N1CCN(C2COC2)CC1` [Example 95, 2-[[(4S)-3,3-difluoro-1-[(2R)-2-hydroxypropanoyl]piperidin-4-yl]oxy]-5-[6-([6-methoxy-5-[4-(oxetan-3-yl)piperazin-1-yl]pyridin-2-yl]amino)pyrimidin-4-yl]benzonitrile], the negative-log IC50 (pIC50) against TBK1 and at IKKe was over 7.00 throughout.
`COc1nc(Nc2cc(-c3ccc(O[C@H]4CCN(C(=O)c5cnn[nH]5)C[C@H]4F)c(C#N)c3)ncn2)ccc1N1CCN(C)CC1` [Example 57, 2-[[(3R,4S)-3-fluoro-1-[(1H-1,2,3-triazol-5-yl)carbonyl]piperidin-4-yl]oxy]-5-(6-[[6-methoxy-5-(4-methylpiperazin-1-yl)pyridin-2-yl]amino]pyrimidin-4-yl)benzonitrile]: the pIC50 at TBK1 and on IKKe was over 7.00 throughout.
In the case of `COc1nc(Nc2cc(-c3ccc(OC4CCN(C)CC4(F)F)c(C#N)c3)ncn2)ccc1C(=O)N(C)C` (stereo not shown) [Example 48, 6-[(6-[3-cyano-4-[(3,3-difluoro-1-methylpiperidin-4-yl)oxy]phenyl]pyrimidin-4-yl)amino]-2-methoxy-N,N-dimethylpyridine-3-carboxamide], the pIC50 on TBK1 and against IKKe was over 7.00 throughout.
Consider `COc1nc(Nc2cc(-c3ccc(O[C@@H]4CCN(C(=O)[C@H](C)O)CC4(F)F)c(C#N)c3)ncn2)ccc1C1CCN(C2COC2)CC1` [Example 94, 2-[[(4R)-3,3-difluoro-1-[(2S)-2-hydroxypropanoyl]piperidin-4-yl]oxy]-5-[6-([6-methoxy-5-[1-(oxetan-3-yl)piperidin-4-yl]pyridin-2-yl]amino)pyrimidin-4-yl]benzonitrile], for which the negative logarithm of the IC50 (pIC50) against TBK1 and against IKKe was over 7.00 in each case.
Take `COc1nc(Nc2cc(-c3ccc(OC4CCOCC4)c(C#N)c3)ncn2)ccc1C(=O)NCCO` [Example 88, 6-([6-[3-cyano-4-(oxan-4-yloxy)phenyl]pyrimidin-4-yl]amino)-N-(2-hydroxyethyl)-2-methoxypyridine-3-carboxamide]: the negative logarithm of the IC50 (pIC50) against TBK1 and at IKKe was over 7.00 in each case.
In the case of `COc1nc(Nc2cc(-c3ccc(OC4CCN(C(=O)c5cnco5)CC4)c(C#N)c3)ncn2)ccc1N1CCN(C)CC1` [Example 56, 5-(6-[[6-methoxy-5-(4-methylpiperazin-1-yl)pyridin-2-yl]amino]pyrimidin-4-yl)-2-([1-[(1,3-oxazol-5-yl)carbonyl]piperidin-4-yl]oxy)benzonitrile], the pIC50 against TBK1 and against IKKe was over 7.00 each time.
Turning to `COc1nc(Nc2cc(-c3ccc(OC4CCN(C(=O)[C@@H](C)O)CC4(F)F)c(C#N)c3)ncn2)ccc1C1CCN(C2COC2)CC1` (stereo partly drawn) [Example 97, 2-([3,3-difluoro-1-[(2R)-2-hydroxypropanoyl]piperidin-4-yl]oxy)-5-[6-([6-methoxy-5-[1-(oxetan-3-yl)piperidin-4-yl]pyridin-2-yl]amino)pyrimidin-4-yl]benzonitrile], the pIC50 at TBK1 and at IKKe was over 7.00 throughout.
Regarding `COc1nc(Nc2cc(-c3ccc(OC4CCNCC4(F)F)c(C#N)c3)ncn2)ccc1N1CCN(C2COC2)CC1` (stereo not shown) [Example 76, 2-[(3,3-difluoropiperidin-4-yl)oxy]-5-[6-({6-methoxy-5-[4-(oxetan-3-yl)piperazin-1-yl]pyridin-2-yl}amino)pyrimidin-4-yl]benzonitrile], the negative-log IC50 (pIC50) against TBK1 and at IKKe was over 7.00 throughout.
Take `COc1nc(Nc2cc(-c3ccc(OC4CCNCC4(F)F)c(C#N)c3)ncn2)ccc1N1CCN(C)C[C@H]1C` (stereo partly drawn) [Example 64, 2-[(3,3-difluoropiperidin-4-yl)oxy]-5-[6-({5-[(2R)-2,4-dimethylpiperazin-1-yl]-6-methoxypyridin-2-yl}amino)pyrimidin-4-yl]benzonitrile]: the pIC50 at TBK1 and on IKKe was over 7.00 throughout.
For the compound `COc1nc(Nc2cc(-c3ccc(OC4CCNCC4(F)F)c(C#N)c3)ncn2)ccc1N1CCN(C2COC2)C[C@@H]1C` (stereo partly drawn) [Example 67, 2-[(3,3-difluoropiperidin-4-yl)oxy]-5-[6-({6-methoxy-5-[(2S)-2-methyl-4-(oxetan-3-yl)piperazin-1-yl]pyridin-2-yl}amino)pyrimidin-4-yl]benzonitrile], the negative logarithm of the IC50 (pIC50) against TBK1 and at IKKe was over 7.00 throughout.
For the compound `COc1nc(Nc2cc(-c3ccc(OC4CCOCC4)c(C#N)c3)ncn2)ccc1C(=O)NC1CN2CCC1CC2` (stereo not shown) [Example 89, 6-((6-(3-cyano-4-((tetrahydro-2H-pyran-4-yl)oxy)phenyl)pyrimidin-4-yl)amino)-2-methoxy-N-(quinuclidin-3-yl)nicotinamide], the negative logarithm of the IC50 (pIC50) at TBK1 and against IKKe was over 7.00 throughout.
As to `COc1nc(Nc2cc(-c3ccc(OC4CCNCC4(F)F)c(C#N)c3)ncn2)ccc1C1CCN(C2COC2)CC1` (stereo not shown) [Example 83], the negative-log IC50 (pIC50) against TBK1 and on IKKe was over 7.00 each time.
Regarding `COc1nc(Nc2cc(-c3ccc(OC4CCN(C(=O)[C@H](C)O)CC4(F)F)c(C#N)c3)ncn2)ccc1N1CCN(C)[C@@H](C)C1` (stereo partly drawn) [Example 82, 2-([3,3-difluoro-1-[(2S)-2-hydroxypropanoyl]piperidin-4-yl]oxy)-5-[6-([5-[(3S)-3,4-dimethylpiperazin-1-yl]-6-methoxypyridin-2-yl]amino)pyrimidin-4-yl]benzonitrile], the pIC50 against TBK1 and at IKKe was over 7.00 in each case.
Regarding `COc1nc(Nc2cc(-c3ccc(O[C@H]4CCN(C(=O)c5cnn[nH]5)C[C@H]4F)c(C#N)c3)ncn2)ccc1N1CCN(C2COC2)CC1` [Example 79, 2-[[(3R,4S)-3-fluoro-1-[(1H-1,2,3-triazol-5-yl)carbonyl]piperidin-4-yl]oxy]-5-[6-([6-methoxy-5-[4-(oxetan-3-yl)piperazin-1-yl]pyridin-2-yl]amino)pyrimidin-4-yl]benzonitrile], the negative-log IC50 (pIC50) against TBK1 and against IKKe was over 7.00 throughout.
For `COc1nc(Nc2cc(-c3ccc(O[C@H]4CCN(C(=O)[C@H](C)O)CC4(F)F)c(C#N)c3)ncn2)ccc1C1CCN(C2COC2)CC1` [Example 93, 2-[[(4S)-3,3-difluoro-1-[(2S)-2-hydroxypropanoyl]piperidin-4-yl]oxy]-5-[6-([6-methoxy-5-[1-(oxetan-3-yl)piperidin-4-yl]pyridin-2-yl]amino)pyrimidin-4-yl]benzonitrile], the pIC50 against TBK1 and at IKKe was over 7.00 each time.
For `COc1nc(Nc2cc(-c3ccc(O[C@@H]4CCN(C(=O)[C@H](C)O)CC4(F)F)c(C#N)c3)ncn2)ccc1N1CCN(C2COC2)C[C@H]1C` [Example 104, 2-[[(4R)-3,3-difluoro-1-[(2S)-2-hydroxypropanoyl]piperidin-4-yl]oxy]-5-[6-([6-methoxy-5-[(2R)-2-methyl-4-(oxetan-3-yl)piperazin-1-yl]pyridin-2-yl]amino)pyrimidin-4-yl]benzonitrile], the negative-log IC50 (pIC50) against TBK1 and against IKKe was over 7.00 each time.
Take `COc1nc(Nc2cc(-c3ccc(OC4CCOCC4)c(C#N)c3)ncn2)ccc1N1CCN(C)CC1` [Example 12, 5-(6-[[6-methoxy-5-(4-methylpiperazin-1-yl)pyridin-2-yl]amino]pyrimidin-4-yl)-2-(oxan-4-yloxy)benzonitrile]: the pIC50 against TBK1 and against IKKe was over 7.00 each time.
Regarding `COc1nc(Nc2cc(-c3ccc(O[C@H]4CCN(C(=O)[C@H](C)O)CC4(F)F)c(C#N)c3)ncn2)ccc1N1CCN(C2COC2)CC1` [Example 91, 2-[[(4S)-3,3-difluoro-1-[(2S)-2-hydroxypropanoyl]piperidin-4-yl]oxy]-5-[6-([6-methoxy-5-[4-(oxetan-3-yl)piperazin-1-yl]pyridin-2-yl]amino)pyrimidin-4-yl]benzonitrile], the negative logarithm of the IC50 (pIC50) at TBK1 and at IKKe was over 7.00 throughout.
Regarding `COc1nc(Nc2cc(-c3ccc(OC4CCOCC4)c(C#N)c3)ncn2)ccc1C1CCN(C)C1` (stereo not shown) [Example 20, 5-(6-[[6-methoxy-5-(1-methylpyrrolidin-3-yl)pyridin-2-yl]amino]pyrimidin-4-yl)-2-(oxan-4-yloxy)benzonitrile], the pIC50 against TBK1 and on IKKe was over 7.00 each time.
With `COc1nc(Nc2cc(-c3ccc(OC4CCNCC4)c(C#N)c3)ncn2)ccc1N1CCN(C)CC1` [Example 50, 5-(6-[[6-methoxy-5-(4-methylpiperazin-1-yl)pyridin-2-yl]amino]pyrimidin-4-yl)-2-(piperidin-4-yloxy)benzonitrile], the negative logarithm of the IC50 (pIC50) on TBK1 and at IKKe was over 7.00 throughout.
For the compound `COc1nc(Nc2cc(-c3ccc(OC4CCOCC4)c(C#N)c3)ncn2)ccc1C(=O)N1CC2CCC(C1)O2` [Example 5, 5-(6-((5-(8-oxa-3-azabicyclo[3.2.1]octane-3-carbonyl)-6-methoxypyridin-2-yl)amino)pyrimidin-4-yl)-2-((tetrahydro-2H-pyran-4-yl)oxy)benzonitrile], the pIC50 on TBK1 and at IKKe was over 7.00 throughout.
`COc1nc(Nc2cc(-c3ccc(OC4CCOCC4)c(C#N)c3)ncn2)ccc1N1CCS(=O)(=O)CC1` [Example 10, 5-(6-[[5-(1,1-dioxo-1λ,4-thiomorpholin-4-yl)-6-methoxypyridin-2-yl]amino]pyrimidin-4-yl)-2-(oxan-4-yloxy)benzonitrile]: the pIC50 on TBK1 and against IKKe was over 7.00 each time.
In the case of `COc1nc(Nc2cc(-c3ccc(OC4CCN(C(=O)[C@@H](C)O)CC4(F)F)c(C#N)c3)ncn2)ccc1N1CCN(C2COC2)C[C@H]1C` (stereo partly drawn) [Example 70, 2-([3,3-difluoro-1-[(2R)-2-hydroxypropanoyl]piperidin-4-yl]oxy)-5-[6-([6-methoxy-5-[(2R)-2-methyl-4-(oxetan-3-yl)piperazin-1-yl]pyridin-2-yl]amino)pyrimidin-4-yl]benzonitrile], the negative logarithm of the IC50 (pIC50) against TBK1 and at IKKe was over 7.00 in each case.

These data come from patent publication US11440899B2, “Pyrimidine TBK/IKKe inhibitor compounds and uses thereof” (Merck Patent GmbH, priority 2017, dated 2022).
